target: T1, NMDA receptor composed of four subunits consisting of two sets of heterodimers of NR1 and NR2B (human GRIN1 and GRIN2B-expressing HEK293 cells) (Homo sapiens, UniProt Q13224); assay: NR2B Ca2+ influx assay; assay type: cell-based; conditions: 10 μM compound, glutamic acid/glycine-induced Ca2+ influx, FLIPR, read-out: inhibitory rate (10 μM compound concentration)
T1 construct: host or cells: HEK293 (tetracycline-inducible expression)
Experimental: In order to confirm an “antagonistic action on an NMDA receptor containing the NR2B subunit” which the compound of the present invention has, inhibitory effect on the NMDA receptor activation was evaluated using “NMDA receptor composed of four subunits consisting of two sets of heterodimers of NR1 and NR2B”-expressing human fetal renal cells, specifically human glutamate ionotropic receptor NMDA type subunit 1 (GRIN1) and human glutamate ionotropic receptor NMDA type subunit 2B (GRIN2B)-expressing HEK293 cells.
As an index of the NMDA receptor activation, intracellular calcium ion (Ca^2+) influx caused by bonding of glycine and glutamate to NR1 and NR2B respectively was used. HEK293 cells were purchased from ChanTest. The cells were cultured in a DMEM/F-12 (COSMO BIO, 10-092-CM) medium containing 10% FBS (fetal bovine serum, AusGene), 100 units/mL penicillin, 100 μg/mL streptomycin, 500 μg/mL neomycin, 100 μg/mL Zeocin and 5 μg/mL Blasticidin at 37° C., 5% CO2. The cells were detached from flask with trypsin the day before the assay, suspended in a seeding medium (DMEM (Invitrogen, 31053) containing 10% FBS, 100 units/mL penicillin and 100 μg/mL streptomycin) at 8×10^5 cells/mL, seeded by 25 μL per well in a 384-well plate (Falcon, 356663) at 20000 cells/well, and cultured overnight in an incubator. On the day of the assay, tetracycline (Wako Pure Chemical Industries, 209-16561) was diluted with the seeding medium at 2 μg/mL, and the dilution was added at 25 μL/well to the plate seeded with the cells, and the cells were cultured for 2 hr in an incubator. Thereafter, the medium was removed, and the cells were washed with 50 μL/well of assay buffer (137 mM NaCl, 4 mM KCl, 1.8 mM CaCl2, 10 mM HEPES (pH 7.2), 10 mM Glucose, and 0.1% BSA). Then, a loading buffer (assay buffer containing 2.5 μM Fluo-4AM, 2 mM Amaranth and 1 mM Tartrazine) was added thereto at 25 μL/well, and loading was performed in the incubator for 30 min, and then at room temperature for 15 min. The test compound was diluted with the above-mentioned assay buffer so as to adjust the concentration to 30 μM, the obtained solution (25 μL) was added thereto (the final concentration 10 μM), and the cells were stood for 15 min at room temperature. Using FLIPR (Molecular Devices), 25 μL of an assay buffer containing 30 μM glutamic acid and 30 μM glycine was added thereto, and the fluorescence signal was measured every 3 seconds for 5 min. The relative activity value (inhibitory rate) was calculated when the cumulative total value of the fluorescence value of a well added with a buffer free of glutamic acid and glycine, relative to the cumulative total value of the fluorescence value of each well are regarded as 100% inhibition. The obtained value was evaluated as an inhibitory activity.

T1 sequence (Q13224 27-1484, other chains not shown): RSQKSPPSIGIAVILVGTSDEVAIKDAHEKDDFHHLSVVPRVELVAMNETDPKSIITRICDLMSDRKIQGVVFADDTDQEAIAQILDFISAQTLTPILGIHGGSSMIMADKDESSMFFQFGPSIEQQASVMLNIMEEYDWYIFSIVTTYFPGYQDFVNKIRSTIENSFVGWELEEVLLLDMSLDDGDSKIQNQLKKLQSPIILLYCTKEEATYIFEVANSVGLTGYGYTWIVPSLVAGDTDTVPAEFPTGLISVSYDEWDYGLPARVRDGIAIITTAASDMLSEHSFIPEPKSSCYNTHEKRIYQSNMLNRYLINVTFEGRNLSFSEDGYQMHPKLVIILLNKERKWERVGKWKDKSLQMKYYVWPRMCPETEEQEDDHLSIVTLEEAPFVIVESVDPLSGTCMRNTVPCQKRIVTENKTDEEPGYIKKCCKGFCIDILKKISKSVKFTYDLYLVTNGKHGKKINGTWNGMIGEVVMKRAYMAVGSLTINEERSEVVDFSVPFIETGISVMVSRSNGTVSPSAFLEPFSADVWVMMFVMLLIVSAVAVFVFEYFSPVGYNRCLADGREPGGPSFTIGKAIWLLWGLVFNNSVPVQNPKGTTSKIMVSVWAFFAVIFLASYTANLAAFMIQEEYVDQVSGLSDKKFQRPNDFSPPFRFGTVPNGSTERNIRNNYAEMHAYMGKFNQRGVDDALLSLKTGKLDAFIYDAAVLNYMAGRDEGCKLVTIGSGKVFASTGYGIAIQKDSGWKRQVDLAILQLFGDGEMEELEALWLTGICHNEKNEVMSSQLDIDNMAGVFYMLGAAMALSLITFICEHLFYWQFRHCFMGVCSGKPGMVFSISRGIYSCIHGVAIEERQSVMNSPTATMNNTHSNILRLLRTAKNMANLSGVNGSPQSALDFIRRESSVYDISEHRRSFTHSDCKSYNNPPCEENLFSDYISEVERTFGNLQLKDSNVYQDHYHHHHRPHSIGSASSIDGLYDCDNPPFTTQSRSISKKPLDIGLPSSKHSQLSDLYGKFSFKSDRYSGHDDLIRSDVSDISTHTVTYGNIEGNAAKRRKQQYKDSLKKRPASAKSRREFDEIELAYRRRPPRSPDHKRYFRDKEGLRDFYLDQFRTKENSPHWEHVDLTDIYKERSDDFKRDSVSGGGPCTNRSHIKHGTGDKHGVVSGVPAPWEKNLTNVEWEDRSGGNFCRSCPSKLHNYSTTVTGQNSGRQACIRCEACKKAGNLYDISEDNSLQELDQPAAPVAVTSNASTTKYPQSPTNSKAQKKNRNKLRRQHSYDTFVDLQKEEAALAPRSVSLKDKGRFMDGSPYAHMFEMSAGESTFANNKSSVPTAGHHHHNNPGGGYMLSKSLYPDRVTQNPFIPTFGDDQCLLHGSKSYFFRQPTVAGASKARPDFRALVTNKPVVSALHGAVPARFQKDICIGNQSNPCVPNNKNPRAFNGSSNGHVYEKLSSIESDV

**Q.** `COc1c(F)cc(C(=O)NCc2cnn3ccn(C)c23)cc1F` [Example 62, 3,5-difluoro-4-methoxy-N-((1-methyl-1H-imidazo[1,2-b]pyrazol-7-yl)methyl)benzamide] was tested. Which inhibition at 10 µM did it give?
**A.** 95%

**Q.** For `Cc1nn2cnccc2c1CNC(=O)c1cnc(OC(F)F)c(F)c1` [Example 55, 6-(difluoromethoxy)-5-fluoro-N-((2-methylpyrazolo[1,5-c]pyrimidin-3-yl)methyl)nicotinamide], which inhibition at 10 µM is on record?
**A.** 84%

**Q.** For `Cc1cnn2nnc(CNC(=O)c3cnc(OC(F)F)c(Cl)c3)c2c1` [Example 51, 5-chloro-6-(difluoromethoxy)-N-((5-methyl[1,2,3]triazolo[1,5-b]pyridazin-3-yl)methyl)nicotinamide], which inhibition at 10 µM is on record?
**A.** 97%

**Q.** How did the inhibition at 10 µM turn out when `O=C(NCc1c(C2CC2)nn2ncccc12)c1cnc(OC(F)F)c(F)c1` [Example 28, N-((2-cyclopropylpyrazolo[1,5-b]pyridazin-3-yl)methyl)-6-(difluoromethoxy)-5-fluoronicotinamide] was run?
**A.** 85%

**Q.** With `Cn1ccn2ncc(CNC(=O)c3ccc(OC(F)(F)F)c(F)c3)c12` [Example 57, 3-fluoro-N-((1-methyl-1H-imidazo[1,2-b]pyrazol-7-yl)methyl)-4-(trifluoromethoxy)benzamide] as the compound, how does the inhibition at 10 µM read?
**A.** 97%

**Q.** Which inhibition at 10 µM does the source give for `O=C(NCc1nnn2ncccc12)c1ccc(OC(F)(F)F)cc1` [Example 19, N-([1,2,3]triazolo[1,5-b]pyridazin-3-ylmethyl)-4-(trifluoromethoxy)benzamide] here?
**A.** 96%

**Q.** With `CCn1ccn2ncc(CNC(=O)c3cnc(OC(F)F)c(Cl)c3)c12` [Example 84, 5-chloro-6-(difluoromethoxy)-N-[(1-ethyl-1H-imidazo[1,2-b]pyrazol-7-yl)methyl]pyridine-3-carboxamide] as the compound, how does the inhibition at 10 µM read?
**A.** 95%

**Q.** How did the inhibition at 10 µM turn out when `O=C(NCc1cnn2ccncc12)c1ccc(OC(F)F)c(F)c1` [Example 44, 4-(difluoromethoxy)-3-fluoro-N-(pyrazolo[1,5-a]pyrazin-3-ylmethyl)benzamide] was run?
**A.** 94%

**Q.** Which inhibition at 10 µM does the source give for `O=C(NCc1cnn2ccn(CC(F)(F)F)c12)c1cnc(OC(F)F)c(F)c1` [Example 82, 6-(difluoromethoxy)-5-fluoro-N-{[1-(2,2,2-trifluoroethyl)-1H-imidazo[1,2-b]pyrazol-7-yl]methyl}pyridine-3-carboxamide] here?
**A.** 72%

**Q.** How did the inhibition at 10 µM turn out when `O=C(NCc1nnn2ncccc12)c1ccc(OC(F)F)c(F)c1` [Example 33, 4-(difluoromethoxy)-3-fluoro-N-([1,2,3]triazolo[1,5-b]pyridazin-3-ylmethyl)benzamide] was run?
**A.** 97%

**Q.** For `O=C(NCc1nnn2ncccc12)c1ccc(OC(F)(F)F)c(F)c1` [Example 18, 3-fluoro-N-([1,2,3]triazolo[1,5-b]pyridazin-3-ylmethyl)-4-(trifluoromethoxy)benzamide], which inhibition at 10 µM is on record?
**A.** 98%

**Q.** Which inhibition at 10 µM does the source give for `O=C(NCc1nnn2ccccc12)c1ccc(OC(F)F)c(Cl)c1` [Example 34, 3-chloro-4-(difluoromethoxy)-N-([1,2,3]triazolo[1,5-a]pyridin-3-ylmethyl)benzamide] here?
**A.** 96%

**Q.** For `Cn1ccn2ncc(CNC(=O)c3ccc(OC(F)(F)F)cc3)c12` [Example 66, N-((1-methyl-1H-imidazo[1,2-b]pyrazol-7-yl)methyl)-4-(trifluoromethoxy)benzamide], which inhibition at 10 µM is on record?
**A.** 98%

**Q.** How did the inhibition at 10 µM turn out when `O=C(NCc1nnn2ccccc12)c1ccc(OC(F)(F)F)cc1` [Example 69, N-([1,2,3]triazolo[1,5-a]pyridin-3-ylmethyl)-4-(trifluoromethoxy)benzamide] was run?
**A.** 92%

**Q.** Which inhibition at 10 µM does the source give for `Cc1nn2ncc(CNC(=O)c3cnc(OC(F)F)c(Cl)c3)c2n1C(F)F` [Example 75, 5-chloro-6-(difluoromethoxy)-N-{[1-(difluoromethyl)-2-methyl-1H-pyrazolo[1,5-b][1,2,4]triazol-7-yl]methyl}pyridine-3-carboxamide] here?
**A.** 91%

**Q.** How did the inhibition at 10 µM turn out when `Cc1ccnn2nnc(CNC(=O)c3cnc(OC(F)F)c(Cl)c3)c12` [Example 54, 5-chloro-6-(difluoromethoxy)-N-((4-methyl[1,2,3]triazolo[1,5-b]pyridazin-3-yl)methyl)nicotinamide] was run?
**A.** 79%

**Q.** With `Cc1nn2ncc(CNC(=O)c3ccc(OC(F)(F)F)c(F)c3)c2n1CC(F)F` [Example 78, N-{[1-(2,2-difluoroethyl)-2-methyl-1H-pyrazolo[1,5-b][1,2,4]triazol-7-yl]methyl}-3-fluoro-4-(trifluoromethoxy)benzamide] as the compound, how does the inhibition at 10 µM read?
**A.** 81%

**Q.** For `Cn1ccn2ncc(CNC(=O)c3ccc(OC4CC4)cc3)c12` [Example 60, 4-(cyclopropyloxy)-N-((1-methyl-1H-imidazo[1,2-b]pyrazol-7-yl)methyl)benzamide], which inhibition at 10 µM is on record?
**A.** 88%

**Q.** With `Cc1cnn2nnc(CNC(=O)c3ccc(OC(F)(F)F)c(F)c3)c2c1` [Example 49, 3-fluoro-N-((5-methyl[1,2,3]triazolo[1,5-b]pyridazin-3-yl)methyl)-4-(trifluoromethoxy)benzamide] as the compound, how does the inhibition at 10 µM read?
**A.** 98%

**Q.** With `CCc1nn2ncccc2c1CNC(=O)c1ccc(OC(F)F)c(F)c1` [Example 27, 4-(difluoromethoxy)-N-((2-ethylpyrazolo[1,5-b]pyridazin-3-yl)methyl)-3-fluorobenzamide] as the compound, how does the inhibition at 10 µM read?
**A.** 92%

**Q.** How did the inhibition at 10 µM turn out when `Cc1nn2ncccc2c1CNC(=O)c1cnc(OC(F)F)c(F)c1` [Example 17, 6-(difluoromethoxy)-5-fluoro-N-((2-methylpyrazolo[1,5-b]pyridazin-3-yl)methyl)nicotinamide] was run?
**A.** 94%

**Q.** With `Cc1cnn2ncc(CNC(=O)c3ccc(OC(F)(F)F)c(F)c3)c2c1` [Example 21, 3-fluoro-N-((5-methylpyrazolo[1,5-b]pyridazin-3-yl)methyl)-4-(trifluoromethoxy)benzamide] as the compound, how does the inhibition at 10 µM read?
**A.** 97%

**Q.** `Cc1ccnn2nnc(CNC(=O)c3cnc(OC(F)F)c(F)c3)c12` [Example 53, 6-(difluoromethoxy)-5-fluoro-N-((4-methyl[1,2,3]triazolo[1,5-b]pyridazin-3-yl)methyl)nicotinamide] was tested. Which inhibition at 10 µM did it give?
**A.** 84%

**Q.** For `Cc1nn2ncc(CNC(=O)c3cnc(OC(F)F)c(F)c3)c2n1C(F)F` [Example 74, 6-(difluoromethoxy)-N-{[1-(difluoromethyl)-2-methyl-1H-pyrazolo[1,5-b][1,2,4]triazol-7-yl]methyl}-5-fluoropyridine-3-carboxamide], which inhibition at 10 µM is on record?
**A.** 90%

**Q.** How did the inhibition at 10 µM turn out when `Cc1cccn2nnc(CNC(=O)c3ccc(OC(F)(F)F)cc3)c12` [Example 2, N-((4-methyl[1,2,3]triazolo[1,5-a]pyridin-3-yl)methyl)-4-(trifluoromethoxy)benzamide] was run?
**A.** 54%

**Q.** How did the inhibition at 10 µM turn out when `CCOc1nn2ncccc2c1CNC(=O)c1ccc(OC(F)F)c(F)c1` [Example 25, 4-(difluoromethoxy)-N-((2-ethoxypyrazolo[1,5-b]pyridazin-3-yl)methyl)-3-fluorobenzamide] was run?
**A.** 78%

**Q.** `O=C(NCc1nnn2ccccc12)c1cnc(OC(F)F)c(F)c1` [Example 14, 6-(difluoromethoxy)-5-fluoro-N-([1,2,3]triazolo[1,5-a]pyridin-3-ylmethyl)nicotinamide] was tested. Which inhibition at 10 µM did it give?
**A.** 94%

**Q.** With `COc1ncc(C(=O)NCc2cnn3ncccc23)cc1Cl` [Example 9, 5-chloro-6-methoxy-N-(pyrazolo[1,5-b]pyridazin-3-ylmethyl)nicotinamide] as the compound, how does the inhibition at 10 µM read?
**A.** 87%

**Q.** With `CCn1ccn2ncc(CNC(=O)c3cnc(OC(F)F)c(F)c3)c12` [Example 83, 6-(difluoromethoxy)-N-[(1-ethyl-1H-imidazo[1,2-b]pyrazol-7-yl)methyl]-5-fluoropyridine-3-carboxamide] as the compound, how does the inhibition at 10 µM read?
**A.** 94%

**Q.** `Cc1nn2cnccc2c1CNC(=O)c1cnc(OC(F)F)c(Cl)c1` [Example 56, 5-chloro-6-(difluoromethoxy)-N-((2-methylpyrazolo[1,5-c]pyrimidin-3-yl)methyl)nicotinamide] was tested. Which inhibition at 10 µM did it give?
**A.** 85%

**Q.** For `O=C(NCc1nnn2ncccc12)c1cnc(OC(F)F)c(F)c1` [Example 23, 6-(difluoromethoxy)-5-fluoro-N-([1,2,3]triazolo[1,5-b]pyridazin-3-ylmethyl)nicotinamide], which inhibition at 10 µM is on record?
**A.** 95%

**Q.** Which inhibition at 10 µM does the source give for `COc1ncc(C(=O)NCc2cnn3ncccc23)cc1F` [Example 4, 5-fluoro-6-methoxy-N-(pyrazolo[1,5-b]pyridazin-3-ylmethyl)nicotinamide] here?
**A.** 85%

Source: patent publication US11702419B2, “Heterocyclic compound and use thereof” (Takeda Pharmaceutical Company Limited, priority 2018, dated 2023)
